Test results reported in ChEMBL document CHEMBL1141946, “Inhibitors of phenylethanolamine N-methyltransferase devoid of alpha2-adrenoceptor affinity” (Bioorg Med Chem Lett, 2005).

target: T1, Adrenergic receptor alpha-2 (Homo sapiens, UniProt P08913+P18825+P18089); experiment: Displacement of [3H]clonidine from Adrenergic alpha-2 receptor; format: protein assay; conditions: not given
T1 sequence (P08913 whole entry): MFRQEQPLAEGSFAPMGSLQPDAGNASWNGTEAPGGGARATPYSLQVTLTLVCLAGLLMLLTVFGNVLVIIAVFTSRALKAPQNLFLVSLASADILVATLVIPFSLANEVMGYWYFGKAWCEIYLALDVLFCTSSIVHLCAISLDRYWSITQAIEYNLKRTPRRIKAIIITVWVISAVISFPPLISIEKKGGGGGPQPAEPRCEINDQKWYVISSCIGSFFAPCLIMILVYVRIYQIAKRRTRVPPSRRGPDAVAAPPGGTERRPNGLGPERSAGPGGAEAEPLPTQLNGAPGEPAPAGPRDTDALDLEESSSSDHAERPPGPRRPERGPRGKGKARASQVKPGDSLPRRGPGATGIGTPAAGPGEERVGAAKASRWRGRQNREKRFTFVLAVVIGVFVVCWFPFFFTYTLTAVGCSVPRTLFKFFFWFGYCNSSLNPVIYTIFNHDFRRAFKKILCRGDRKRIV
T1 sequence (P18825 whole entry): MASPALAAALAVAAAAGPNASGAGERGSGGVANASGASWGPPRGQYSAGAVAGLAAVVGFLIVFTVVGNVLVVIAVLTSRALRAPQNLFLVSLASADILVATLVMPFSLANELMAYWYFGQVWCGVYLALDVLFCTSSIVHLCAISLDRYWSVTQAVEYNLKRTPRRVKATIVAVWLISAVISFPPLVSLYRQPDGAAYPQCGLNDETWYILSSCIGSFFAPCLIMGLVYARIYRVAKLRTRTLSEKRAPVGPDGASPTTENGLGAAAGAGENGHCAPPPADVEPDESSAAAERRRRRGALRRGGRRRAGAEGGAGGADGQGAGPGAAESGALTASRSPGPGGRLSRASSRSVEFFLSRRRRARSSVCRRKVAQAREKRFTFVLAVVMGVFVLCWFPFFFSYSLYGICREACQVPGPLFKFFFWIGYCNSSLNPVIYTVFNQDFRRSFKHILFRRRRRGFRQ
T1 sequence (P18089 whole entry): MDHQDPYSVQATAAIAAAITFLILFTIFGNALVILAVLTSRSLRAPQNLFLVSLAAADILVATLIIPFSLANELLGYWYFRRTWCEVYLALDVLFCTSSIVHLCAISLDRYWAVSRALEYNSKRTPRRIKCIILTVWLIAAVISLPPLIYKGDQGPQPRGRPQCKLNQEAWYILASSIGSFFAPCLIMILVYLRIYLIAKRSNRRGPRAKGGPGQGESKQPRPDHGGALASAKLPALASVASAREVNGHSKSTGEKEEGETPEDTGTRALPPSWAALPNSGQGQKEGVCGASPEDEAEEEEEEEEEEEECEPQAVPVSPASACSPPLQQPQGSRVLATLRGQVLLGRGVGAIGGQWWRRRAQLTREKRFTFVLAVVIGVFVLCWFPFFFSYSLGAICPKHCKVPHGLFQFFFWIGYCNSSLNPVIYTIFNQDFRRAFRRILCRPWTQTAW

Row | SMILES | Ki
1 | Ic1ccc2c(c1)CNCC2 | 0.22 µM
2 | CCC1Cc2ccc([N+](=O)[O-])cc2CN1 (racemic) | 28 µM
3 | FC(F)(F)C1Cc2ccc(Br)cc2CN1 (racemic) | > 1000 µM
4 | Clc1ccc2c(c1Cl)CNCC2 | 0.021 µM
5 | NS(=O)(=O)c1ccc2c(c1)CNC(C(F)(F)F)C2 (racemic) | > 1000 µM
6 | N#Cc1ccc2c(c1)CNC(C(F)(F)F)C2 (racemic) | 2900 µM
7 | CC1Cc2ccc(Br)cc2CN1 (racemic) | 1.1 µM
8 | CCC1Cc2ccc(Br)cc2CN1 (racemic) | 1.2 µM
9 | CC(C)C1Cc2ccc([N+](=O)[O-])cc2CN1 (racemic) | 36 µM
10 | CC(C)C1Cc2ccc(Br)cc2CN1 (centres undefined) | 3.9 µM

Second part, the compound after the results:

Row | Ki | SMILES
11 | > 1000 µM | FC(F)(F)C1Cc2ccc(Cl)cc2CN1 (racemic)
12 | > 1000 µM | FC(F)(F)c1ccc2c(c1)CNC(C(F)(F)F)C2 (racemic)
13 | > 1000 µM | CCNS(=O)(=O)c1ccc2c(c1)CNC(C(F)(F)F)C2 (racemic)
14 | 1400 µM | NS(=O)(=O)c1ccc2c(c1)CNC(CO)C2 (centres undefined)
15 | > 1000 µM | FC(F)(F)C1Cc2ccc(I)cc2CN1 (racemic)
16 | 400 µM | FC(F)(F)C1Cc2ccccc2CN1 (centres undefined)
17 | 1400 µM | O=[N+]([O-])c1ccc2c(c1)CNC(C(F)(F)F)C2 (racemic)
18 | 3900 µM | CS(=O)(=O)c1ccc2c(c1)CNC(C(F)(F)F)C2 (racemic)

same assay, conditions: read-out: Ki

Row | SMILES | Ki
19 | NS(=O)(=O)c1ccc2c(c1)CNCC2 | 100 µM
